Results on 13 compounds are retold here after patent US12534458B2, “Spiropiperidine allosteric modulators of nicotinic acetylcholine receptors” (Merck Sharp & Dohme LLC, priority 2019, dated 2026).

Chain of human α7 nAChR (P36544 23-502): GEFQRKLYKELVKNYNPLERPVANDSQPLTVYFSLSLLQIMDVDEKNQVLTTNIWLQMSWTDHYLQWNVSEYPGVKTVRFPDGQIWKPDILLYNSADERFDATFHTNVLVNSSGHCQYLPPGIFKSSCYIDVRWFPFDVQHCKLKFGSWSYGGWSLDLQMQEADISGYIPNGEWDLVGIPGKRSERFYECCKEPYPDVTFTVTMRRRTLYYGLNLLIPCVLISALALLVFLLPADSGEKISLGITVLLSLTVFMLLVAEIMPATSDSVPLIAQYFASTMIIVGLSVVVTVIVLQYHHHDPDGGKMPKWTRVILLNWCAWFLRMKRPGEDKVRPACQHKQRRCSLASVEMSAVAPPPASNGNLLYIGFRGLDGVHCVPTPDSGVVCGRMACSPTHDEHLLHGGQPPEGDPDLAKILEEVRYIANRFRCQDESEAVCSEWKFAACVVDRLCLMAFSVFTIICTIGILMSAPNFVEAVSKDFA

The assay addresses human α7 nAChR (Homo sapiens (Human), UniProt P36544). As to the kind of experiment: Automated patch-clamp electrophysiology functional assay (Assay A). The assay is classed as cell-based. The conditions noted are these: IonFlux HT whole-cell population patch, HEK cell line stably expressing human RIC-3 and human α7, 40 μM acetylcholine. As for the experimental part:
The α7 nAChR positive allosteric modulator (PAM) activity of the present compounds may be tested using assays known in the art. The α7 nAChR PAMs described herein have activities in an automated patch-clamp electrophysiology functional assay as described in the examples. The assay was performed using the IonFlux HT in a whole-cell, population patch configuration. See Golden et al. Assay Drug Dev. Technol. (2011) 9:608-619. The compounds were assessed for their ability to modulate the function of the human α7 nAChR stably expressed in a HEK cell line both in the presence, and in the absence of the natural α7 agonist acetylcholine. By performing a series of such measurements at different concentrations, the effective concentration of the α7 nAChR PAMs (EC50) was determined. See Spencer et al. Assay Drug Dev. Technol. (2012) 10:313-324.
Direct activation of α7 (agonism), and potentiation of acetylcholine-evoked α7 currents was determined as follows:
Automated patch-clamp electrophysiology was performed using the IonFlux HT (Fluxion Biosciences Inc., San Francisco, CA) in the whole-cell, population patch configuration. Test compounds were assessed for their ability to modulate the function of the α7 nicotinic acetylcholine receptor both in the presence, and in the absence of the natural α7 agonist acetylcholine. A HEK cell line stably expressing both human RIC-3 and human α7 (PrecisION hnAChR α7/RIC-3, Eurofins Pharma, St. Charles, MO) was cultured in 175 cm^2 triple-layer tissue culture flasks to no more than 90% confluency in DMEM/F-12 growth media supplemented with 10% heat-inactivated fetal bovine serum, 1% non-essential amino acids, 0.625 μg/mL Puromycin, and 400 μg/mL Geneticin. Immediately prior to assay, cells were detached by first aspirating growth media, rinsing with Dulbecco's phosphate buffered saline, and then adding 10 mL of Accutase (Innovative Cell Technologies, San Diego, CA) to the flask and then incubating at 37° C. for 5 minutes. Detached cells were then recovered by the addition of 40 mL of CHO-serum-free media supplemented with 25 mM HEPES, and rocked gently in a 50 mL conical tube for 20 minutes prior to patch-clamp assay. After recovery, cells were pelleted by centrifugation at 1,000 RPM for 1 minute in a compact bench top centrifuge; recovery media was aspirated and cells were resuspended in external recording solution (150 mM NaCl, 5 mM KCl, 2 mM CaCl2), 1 mM MgCl2, 10 mM HEPES, 12 mM dextrose) to a density of 5.0×10^6 cells/mL. The cell suspension was added to the cell inlet wells on an IonFlux HT population patch plate which had previously been rinsed and primed with deionized H2O. Test compounds were serially diluted in DMSO and then resuspended to the final test concentration in external recording solution, with, or without 40 μM acetylcholine added to the external recording solution; test compounds were then transferred to the IonFlux HT population patch plate. Internal recording solution (110 mM TrisPO4, 28 mM TrisBase, 0.1 mM CaCl2), 2 mM MgCl2, 11 mM EGTA, 4 mM MgATP) was added to the internal recording solution inlet wells on the IonFlux HT patch plate previously loaded with cells and test compounds, and the plate loaded into the IonFlux HT instrument. A protocol was executed on the IonFlux HT to trap the cells, break into the cells, and establish the whole-cell recording configuration; cells were voltage-clamped at a holding potential of −60 mV for the duration of the experiment, all experiments were conducted at room temperature, and the IonFlux HT injection pressure was 8 psi for solution applications. Upon establishing the whole-cell configuration, external recording solution was perfused into the recording chambers for 120 seconds and then 40 μM acetylcholine was applied for 1 second and immediately washed off with external recording solution for 60 seconds. […]
(In general: The patch-clamp technique gives a direct electrical read-out from membranes.)
In general, EC50 refers to the concentration giving half of the maximal effect. With `NS(=O)(=O)N1CCC2(CC1)[C@H](c1cccc(-c3ccc(C(F)(F)F)cc3)n1)C2(F)F` [Example 5, (2R)-1,1-Difluoro-2-{6-[4-(trifluoromethyl)phenyl]pyridin-2-yl}-6-azaspiro[2.5]octane-6-sulfonamide], the EC50 stood at 340 nM. As for `NS(=O)(=O)N1CCC2(CC1)[C@H](c1nc3ccccc3o1)C2(F)F` [Example A3, (2R)-2-(1,3-Benzoxazol-2-yl)-1,1-difluoro-6-azaspiro[2.5]octane-6-sulfonamide], the half-maximal effective concentration (EC50) turned out to be 1000 nM. To `NS(=O)(=O)N1CCC2(CC1)C(c1cccc(-c3conc3C3CC3)n1)C2(F)F` (single isomer, unassigned) [Example C2, 2-[6-(3-Cyclopropylisoxazol-4-yl)pyridin-2-yl]-1,1-difluoro-6-azaspiro[2.5]octane-6-sulfonamide] belongs 850 nM; to `NS(=O)(=O)N1CCC2(CC1)[C@H](c1cc(-c3ccccc3)ccn1)C2(F)F` [Example A1, (2R)-1,1-Difluoro-2-(4-phenylpyridin-2-yl)-6-azaspiro[2.5]octane-6-sulfonamide], 190 nM.

Regarding `NS(=O)(=O)N1CCC2(CC1)[C@H](c1cccc(-c3ccccc3C3CC3)n1)C2(F)F` [Example A2, (2R)-2-[6-(2-Cyclopropylphenyl)pyridin-2-yl]-1,1-difluoro-6-azaspiro[2.5]octane-6-sulfonamide], the EC50 was 830 nM. To `NS(=O)(=O)N1CCC2(CC1)CC2c1cccc(-c2ccccc2)n1` (stereo not shown) [Example 3, 1-(6-Phenylpyridin-2-yl)-6-azaspiro[2.5]octane-6-sulfonamide] belongs 3000 nM; to `NS(=O)(=O)N1CCC2(CC1)C(c1cccc(-c3ccccc3)n1)C2(F)F` (stereo not shown) [Example 2, 1,1-Difluoro-2-(6-phenylpyridin-2-yl)-6-azaspiro[2.5]octane-6-sulfonamide], 1600 nM; to `NS(=O)(=O)N1CCC2(CC1)[C@@H](c1cc(-c3ccccc3)ccn1)C2(F)F` [Example B2, (2S)-1,1-Difluoro-2-(4-phenylpyridin-2-yl)-6-azaspiro[2.5]octane-6-sulfonamide], 1700 nM.

As for `NS(=O)(=O)N1CCC2(CC1)C(c1cccc(-c3cccc(C(F)(F)F)c3)c1)C2(F)F` (racemic) [Example C1, 1,1-Difluoro-2-[3′-(trifluoromethyl)biphenyl-3-yl]-6-azaspiro[2.5]octane-6-sulfonamide], the 50% effective concentration (EC50) is 430 nM. To `NS(=O)(=O)N1CCC2(CC1)[C@@H](c1cccc(-c3ccc(C(F)(F)F)cc3)n1)C2(F)F` [Example B1, (2S)-1,1-Difluoro-2-{6-[4-(trifluoromethyl)phenyl]pyridin-2-yl}-6-azaspiro[2.5]octane-6-sulfonamide] belongs 4400 nM. To `NS(=O)(=O)N1CCC2(CC1)[C@H](c1nccc(-c3ccccc3)n1)C2(F)F` [Example 4, (2R)-1,1-Difluoro-2-(4-phenylpyrimidin-2-yl)-6-azaspiro[2.5]octane-6-sulfonamide] belongs 1900 nM; to `NS(=O)(=O)N1CCC2(CC1)C[C@H]2c1nc2ccccc2s1` [Example 1, (1R)-1-(1,3-Benzothiazol-2-yl)-6-azaspiro[2.5]octane-6-sulfonamide], 930 nM.

`Cc1ccccc1-c1cccc([C@@H]2C(F)(F)C23CCN(S(N)(=O)=O)CC3)n1` [Example 6, (2R)-1,1-Difluoro-2-[6-(2-methylphenyl)pyridin-2-yl]-6-azaspiro[2.5]octane-6-sulfonamide]: the EC50 amounted to 2200 nM.
